Article PMC7077720, “Improvement of Peptide Affinity and Stability by Complexing to Cyclodextrin-Grafted Ammonium Chitosan” (Polymers, 2020)
Where a SMILES comes first, the peptide text is derived from it. [ ]: non-standard residue; d: D form.

Legend:
[1] = Complex association constant (Benesi–Hildebrand method), fluorescence spectrometry; type: binding; details: rounded value quoted in text; technique not named at the place
Description: Complex association constant (Ka) was determined by spectrometric titration based on the Benesi–Hildebrand method and performed both by UV-VIS and fluorescence spectrometry. Two sets of dilutions were prepared (Tables S2–S5, Supplementary material). In the case of UV spectrometry, 275 μM DAL was kept, whereas MCD concentrations varied, either as MCD alone or as conjugated (N^+-rCh-MCD). The solutions were prepared and analyzed after being equilibrated for 1 h at room temperature. UV spectra in the range 220–325 nm were collected, and the intensity of absorbance at 282 nm was normalized on the correspondent value at 247 nm. Diversely, for fluorescence spectroscopy evaluations, DAL concentration was kept at 70 μM, and samples were analyzed by using a PerkinElmer LS 45 fluorimeter, with excitation λ set at 270 nm and the emission spectrum collected between 340 and 270 nm. The variation of fluorescence intensity was evaluated at 304 nm, and it was normalized on 285 nm. […]
The determination of the association constant (Ka) for complexes of DAL/MCD and of DAL/N^+-rCh-MCD was performed both by UV and fluorescence spectrometry. Both techniques exploited the gradual variation of DAL absorbance or fluorescence in the presence of increasing amounts of host agent. […]

α-chymotrypsin (CHT) [2] = target: T1, α-chymotrypsin (CHT) (Bos taurus, UniProt P00766); assay: Stability under enzymatic hydrolysis by α-chymotrypsin, residual DAL by HPLC; type: in vitro ADME; details: 37 °C
T1 construct: purchased Sigma-Aldrich (St. Louis, MO, USA)
Description: GPC (Gel permeation chromatography) and HPLC analyses were carried out with a Perkin-Elmer instrument (Perkin-Elmer, Waltham, MA, USA), consisting of a Series 200 LC-290 AT pump, Rheodyne injector with a loop of 20 μL, UV-VIS SPD–6 AV detector, and Turbochrom Navigator software (Turbochrom 6.1, Perkin-Elmer, Waltham, MA, USA ). For GPC analyses, the standard pullulans were employed; the stationary phase was an X-stream H2O Mixed Bed 50 × 4.6 mm column, the mobile phase was acetate buffer 0.5 M (pH = 2.9), and the wavelength of the detector was set to 237 nm. For HPLC, the suitable mobile phase result was H2O:CH3CN = 70:30, the column was a C18 Aquapore OD-300 (Perkin-Elmer, Waltham, MA, USA) 7 µm 4.6 × 250 mm, and the wavelength of the detector was set to 227 nm.
Stock solutions of dalargin (1 mg/mL) either alone or as a 1:1 complex with MCD or polymers were mixed with α-chymotrypsin (0.36 mg/mL) solutions to obtain 0.50 mg/mL and 0.18 mg/mL (corresponding to 7.2 UI/mL) final concentrations, respectively. […] All samples were analyzed after 5 min by interrupting the digestion with temperature shock (4 °C) and extensive dilution (1:20 with cold HPLC mobile phase). Residual DAL was expressed as the percentage of initial DAL as detected by the HPLC method. […]

α-chymotrypsin (CHT) [3] = target: T1, α-chymotrypsin (CHT); assay: Enzymatic hydrolysis of DAL by α-chymotrypsin followed by 1H NMR; type: in vitro ADME
Description: The same DAL/enzyme ratio and concentrations of components selected for HPLC were used in NMR analysis at 37 °C through the entire digestion process. DAL and α-chymotrypsin stock solutions were prepared in phosphate buffer (pH = 6.8) and mixed directly into the NMR tube containing predissolved polymers at 40 °C for 2 h.
By using the same DAL/CHT molar ratio selected for HPLC analysis, low and high frequency NMR spectral regions of dalargin, pure (Figure 7a) and in presence of CHT (Figure 7b, c), were monitored over time at 37 °C. In the binary mixture DAL/CHT, a rapid decrease of the original dalargin signals was observed already after 5 min with the simultaneous formation of new peaks, which was attributable to the digestion products. […] In order to obtain a quantitative parameter, we refer to the lifetime of the drug (tf), the specific time in which non-degraded DAL reached 6% with respect to the hydrolyzed products. If the mixture is maintained at room temperature (25 °C), the tf of DAL is extended up to 45 min, owing to a reduced activity of the enzyme.

[4] = Stability of pure DAL in water by 1H NMR; type: physicochemical; details: 37 °C, several days, 1H NMR chemical shifts and integrated areas
Caco-2 monolayers = assay: In vitro protection from enzymatic degradation on Caco-2 monolayers; type: in vitro ADME, human; details: DAL 50 μg/mL applied apically in HBSS, 37 °C, HPLC, three experiments
Description: A Caco-2 monolayer was obtained by cell seeding (10^5 cells/well) on a polycarbonate membrane filter (pore size 0.4 μm, area 1.12 cm^2) in Corning Transwell, 12-well plates (Sigma-Aldrich, Saint Louis, MO, USA). Thereafter, 0.5 and 1.5 mL of culture medium was added to apical and basolateral compartments of the transwell inserts, respectively; the culture medium was replaced every two days for 24 days. As a rule, the experiments were performed with Caco-2 monolayers that have been grown on filter inserts for 21–29 days. By day 21, the monolayers have become differentiated with regard to the expression of many transport proteins, enzymes, and brush border hydrolases. The TransEpithelial Electrical Resistance (TEER, Ωcm^2) across the Caco-2 monolayer was determined by measuring the potential difference between the apical and basolateral sides of the transwell using the Millicell-ERS (Millipore, Milano, Italy). TEER was measured prior to each experiment to ensure the confluence of the monolayers, during transport studies (every 30 min), and at 24 h from the samples’ removal to assess monolayer stability recovery. Experiments were performed by using DAL-containing samples, which had either DAL alone or the presence of polymers and cyclodextrin. […] At the end of the experiment (3 h), the apical chambers media were collected and analyzed by HPLC for DAL content evaluation.

Row | Compound | Association constant of DAL with host (Ka) [1] [M⁻¹] | reduction of the initial DAL content after 5 min of α-chymotrypsin (α-chymotrypsin (CHT) [2]; freshly prepared solutions, DAL 0.50 mg/mL alone or 1:1 with host, CHT 0.18 mg/mL (7.2 UI/mL), phosphate buffer pH 6.8, 0.4 M, HPLC-UV 227 nm, three independent experiments) [%] | stability of DAL to α-chymotrypsin, lyophilized samples redispersed in buffer (α-chymotrypsin (CHT) [2]; lyophilized DAL alone or 1:1 complex redispersed in PB, CHT 0.18 mg/mL, pH 6.8, 5 min, HPLC) | lifetime of the drug tf at room temperature (α-chymotrypsin (CHT) [3]; DAL/CHT mixture kept at 25 °C, tf = time at which non-degraded DAL reached 6%, 1H NMR) [min] | time after which digestion was almost complete (α-chymotrypsin (CHT) [3]; binary mixture DAL/CHT, no host, 1H NMR integrated areas, 37 °C, phosphate buffer pH 6.8, DAL 0.68 mM) [min] | stability of pure DAL in water [4] | DAL content in the apical chamber after 3 h of incubation (Caco-2 monolayers; Caco-2 monolayers (Transwell, 21–29 days)) [µg/mL] | residual DAL in the apical chamber after 3 h of incubation (Caco-2 monolayers; Caco-2 monolayers)
1 | 2-methyl-β-cyclodextrin [MCD] | 120 | – | – | – | – | – | – | –
2 | CC(C)C[C@H](NC(=O)[C@H](Cc1ccccc1)NC(=O)CNC(=O)[C@@H](C)NC(=O)[C@@H](N)Cc1ccc(O)cc1)C(=O)N[C@@H](CCCNC(=N)N)C(=O)O [DAL, (D-Ala2)-Leu-Enkephalin-Arg] (H-Y[dA]GFLR-OH) | – | 80 | rapidly degraded | 45 | 14 | stable | 4.1 to 7.3 | 8%–15%
